Columns and labels:
[1] = test system: cynomolgus macaque model of glaucoma; assay: Intraocular pressure in cynomolgus macaque model of glaucoma (laser trabeculoplasty); assay type: in vivo
Experimental: (§1) Three weeks before the first laser trabeculoplasty, IOP was measured via a tomometer (SPHPR-320-61), once per week for three weeks. The first laser trabeculoplasty was performed in one eye for each macaque. Two weeks later, laser trabeculoplasty was repeated in the same eye (Week 0).
(§2) One week after the second laser trabeculoplasty (Week 1), IOP was measured and retinal nerve fiber layer (RNFL) thickness was measured via optical coherence tomography (OCT; RS3000 Advance, Nidek Co. Ltd., Gamagoori, Japan) (SPHPR- 320-58). The day after group assignment, the eyes were instilled with either vehicle, KR-67607 or brimonidine twice a day. On Day 1, the effect of treatment on IOP over time was measured before treatment and 1, 2, 4, and 8 hrs. after instillation. At the same time, blood samples were obtained. From the effects of dosing observed on Day 1, it was determined that 2 hrs. was a reasonable time time-to-test following instillation for subsequent observations.
(§3) Intraocular pressures were obtained at Weeks 2, 3, 4, 5, 7 and 9. Optical coherence tomography and color fundus photography (CFP) were performed at Weeks 1, 3, 5, 7, and 9 (SPHPR-320-56).
Following measurements at Week 9, G3 macaques was randomized into two groups based on IOP, and the effect of KR-67607 (1.5 mg/mL, 3.0 mg/mL) on IOP was evaluated.

[2] = test system: cynomolgus macaque model of glaucoma; assay: Retinal nerve fiber layer thickness by OCT in cynomolgus macaque model of glaucoma; assay type: in vivo
Experimental: as §1, §2, §3

[3] = test system: cynomolgus macaque model of glaucoma; assay: Funduscopy in cynomolgus macaque model of glaucoma; assay type: in vivo
Experimental: as §1, §2, §3

normal patients = conditions: cited from earlier work
[4] = cited from earlier work

Brimonidine tartrate [reference compound]
maximum decrease of IOP, contralateral normal eye ([1]; Day 1 dosing, 2 hours after dosing): 4.1±0.9 mmHg | maximum decrease of IOP, glaucomatous eye ([1]; Day 1 dosing, 2 hours after instillation): 19.5±2.7 mmHg | effect on trough IOP value ([1]; glaucomatous eyes, repeated treatment twice a day, brimonidine tartrate 0.1%, KR-67607 1.5 mg/mL): did not significantly affect | maximum decrease of IOP, normal eye ([1]; over weeks): 4.9±0.8 mmHg | number of eyes with RNFL thickness greater than 50% compared to baseline ([2]; Week 9, 6 eyes per group): 1 | RNFL thinning in glaucomatous eyes ([2]; repeated treatment, compared to vehicle-treated (G1)): appeared to inhibit | animals with a lesser degree of cupping compared to G1 ([3]; Week 3 to Week 5): three animals | animals with a small or lesser degree of cupping ([3]; Week 9): one animal

CC1(C)[C@@H](OC(=O)CCC(=O)O)CC[C@]2(C)[C@H]3C(=O)C=C4[C@@H]5C[C@@](C)(C(=O)O)CC[C@]5(C)CC[C@@]4(C)[C@]3(C)CC[C@@H]12 [carbenoxolone]
reduce intraocular pressure to levels as low as (normal patients): 20%

2-hydroxypropyl-β-cyclodextrin [HP-β-CD]
solubility in water [4]: more than 1 g/ml
